Laboratory results published in US5814622A, “Compounds derived from boronic acid” (Adir et Compagnie, priority 1996, dated 1998).

How the values were obtained:
[1] = test system: platelets; assay: Thrombopenic activity after oral administration to dogs; type: in vivo; conditions: dog
Protocol: Male or female dogs weighing 11-28 kg are treated orally with the products of the invention (5 mg/kg) or with the reference substance, DUP 714, at a concentration of 2.5 mg/kg. […] The number of platelets is also determined in each sample using a T450 counter (Coultronics).
Under the conditions of our experiments, the number of platelets before the treatment is about 300,000 platelets/μl; the TT is about 19 seconds and the ACT is about 18 seconds.

[2] = test system: plasma from the dogs (TT); assay: TT in dogs after oral administration; type: in vivo; conditions: dog; for Increase in TT (number of times that the initial time is increased), 1 hour / Increase in TT (number of times that the initial time is increased), 4 hours: 5 mg/kg
Protocol: (§2) Male or female dogs weighing 11-28 kg are treated orally with the products of the invention (5 mg/kg) or with the reference substance, DUP 714, at a concentration of 2.5 mg/kg. The coagulation times (TT, ACT) are determined in samples of plasma from the dogs 10 min before and 30 min, 1 hour, 2 hours, 4 hours and 6 hours after administration of the products. […] The number of platelets is also determined in each sample using a T450 counter (Coultronics).
(§3) The values show the number of times that the initial time is increased.

[3] = test system: plasma from the dogs (ACT); assay: ACT in dogs after oral administration; type: in vivo; conditions: dog; for Increase in ACT (number of times that the initial time is increased), 1 hour / Increase in ACT (number of times that the initial time is increased), 4 hours: 5 mg/kg
Protocol: as §2, §3

[4] = test system: thrombin; conditions: literature; cited from earlier work
[5] = test system: human plasma (thrombin time); assay: Anticoagulant activity: thrombin time (TT) in human plasma; type: biochemical; conditions: 37° C., 2 min preincubation
Protocol: (§1) Anticoagulant activity, measurement of the thrombin time and the activated cephalin time in man In order to evaluate the anticoagulant activity of the compounds of the invention, the thrombin time (TT) and the activated cephalin time (ACT) were determined in samples of human plasma. An ST4 coagulometer (Diagnostica Stago, France) was used. […] The TT is determined with the Thrombin Prest reagent and the ACT with the Automat […] reagent. The inhibitor or the solvent (10 μl) is added to the plasma (90 μl), then the mixture is incubated for 2 minutes at 37° C. 100 μl of Thrombin […]) or of Automat […]) are added while starting the chronometer. […] The activity of an antagonist is evaluated by its capacity to prolong the TT and the ACT relative to the control.

[6] = test system: human plasma (activated cephalin time); assay: Anticoagulant activity: activated cephalin time (ACT) in human plasma; type: biochemical; conditions: 37° C., 2 min preincubation
Protocol: as §1

[7] = target: T1, human thrombin (Homo sapiens, UniProt P00734); assay: Inhibition of human thrombin (fibrinogen to fibrin); type: biochemical; conditions: human thrombin 0.7 nM, purified human fibrinogen, 20° C., pH 7.4
T1 construct: human thrombin (Sigma, specific activity 3230 UNIH/mg); purchased Sigma

[8] = target: T2, Plasmin (Homo sapiens, UniProt P00747); assay: Inhibition of plasmin; type: biochemical; conditions: purified human plasmin 2 nM, substrate <Glu-Phe-Lys-pNA 0.05 mM, 20° C., pH 7.4
T2 construct: Products Thrombin Plasmin t-PA u-PA; purchased Stage [sic]
T2 sequence (P00747 581-810 limits assumed): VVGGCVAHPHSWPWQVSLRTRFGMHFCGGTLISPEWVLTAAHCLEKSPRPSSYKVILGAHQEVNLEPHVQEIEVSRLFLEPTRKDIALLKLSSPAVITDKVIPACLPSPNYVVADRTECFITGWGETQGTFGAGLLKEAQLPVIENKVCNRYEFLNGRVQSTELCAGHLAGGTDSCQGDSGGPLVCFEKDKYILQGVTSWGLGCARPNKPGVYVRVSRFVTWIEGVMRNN
T2 sequence (P00747 97-580 partner limits assumed): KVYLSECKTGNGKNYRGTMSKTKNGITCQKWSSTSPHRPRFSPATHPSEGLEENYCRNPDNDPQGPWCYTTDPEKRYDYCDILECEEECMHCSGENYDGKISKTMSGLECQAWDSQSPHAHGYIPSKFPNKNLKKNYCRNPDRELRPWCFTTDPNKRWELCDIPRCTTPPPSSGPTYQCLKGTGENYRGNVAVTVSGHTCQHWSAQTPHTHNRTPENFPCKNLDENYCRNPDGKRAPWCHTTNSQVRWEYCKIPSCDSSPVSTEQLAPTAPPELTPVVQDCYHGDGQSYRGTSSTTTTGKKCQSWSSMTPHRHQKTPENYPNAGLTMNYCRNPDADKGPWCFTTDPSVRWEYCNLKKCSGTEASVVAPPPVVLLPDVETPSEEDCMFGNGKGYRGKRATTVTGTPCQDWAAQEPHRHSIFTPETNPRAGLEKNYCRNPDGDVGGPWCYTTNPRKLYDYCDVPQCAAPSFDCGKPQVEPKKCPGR

[9] = target: plasminogen tissue activator (t-PA) (Homo sapiens, UniProt P00750); assay: Inhibition of plasminogen tissue activator (t-PA); type: biochemical; conditions: t-PA 2 nM, substrate H-D-Ile-Pro-Arg-pNA 0.48 mM, 20° C., pH 7.4
Chain of plasminogen tissue activator (t-PA) (P00750 23-562 limits assumed): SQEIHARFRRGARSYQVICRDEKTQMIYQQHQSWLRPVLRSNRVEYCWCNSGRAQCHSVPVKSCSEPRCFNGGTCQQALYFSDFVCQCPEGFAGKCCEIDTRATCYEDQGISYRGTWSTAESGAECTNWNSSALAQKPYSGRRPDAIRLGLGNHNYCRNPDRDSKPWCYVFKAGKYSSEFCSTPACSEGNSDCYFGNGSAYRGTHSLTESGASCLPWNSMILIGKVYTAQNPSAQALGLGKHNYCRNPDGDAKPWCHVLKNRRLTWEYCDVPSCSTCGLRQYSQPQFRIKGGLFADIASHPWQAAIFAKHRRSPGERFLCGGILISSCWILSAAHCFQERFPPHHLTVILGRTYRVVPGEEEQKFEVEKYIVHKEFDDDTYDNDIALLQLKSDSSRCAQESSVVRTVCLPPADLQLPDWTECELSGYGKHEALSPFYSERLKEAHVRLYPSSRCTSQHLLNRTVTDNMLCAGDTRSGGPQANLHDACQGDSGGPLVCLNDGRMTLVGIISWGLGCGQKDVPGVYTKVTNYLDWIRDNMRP

[10] = target: T3, human urokinase (u-PA) (Homo sapiens, UniProt P00749); assay: Inhibition of urokinase (u-PA); type: biochemical; conditions: purified human u-PA 2 nM, substrate <Glu-Gly-Arg-pNA 0.56 mM, 20° C., pH 7.4
T3 construct: purchased Sigma

[11] = test system: thrombin; conditions: prior knowledge; cited from earlier work

Thrombopenias observed 1 hour after oral administration to dogs ([1]; 2.5 mg/kg, 1 hour)	fall in number of platelets ([1]; 2.5 mg/kg, 1 hour)	IC50 [7]	IC50 [8]	IC50 [9]	IC50 [10]	Thrombopenias observed 1 hour after oral administration to dogs ([1]; 5 mg/kg, 1 hour)	Compound	effect on number of platelets, in words ([1]; 2.5 mg/kg)	increase of TT in animals, in words [2]	increase of ACT in animals, in words [3]	thrombin inhibition, in words [4]	TT Ctt2 (concentration which multiplies the coagulation time by 2) [5]	ACT Ctt2 (concentration which multiplies the coagulation time by 2) [6]	Increase in TT (number of times that the initial time is increased), 1 hour [2]	Increase in TT (number of times that the initial time is increased), 4 hours [2]	Increase in ACT (number of times that the initial time is increased), 1 hour [3]	Increase in ACT (number of times that the initial time is increased), 4 hours [3]	activity via the oral route, in words [11]
		9.3 nM	1960 nM	810 nM	> 33000 nM	0%	COC12CCC(c3ccc(C(=O)N[C@@H](CCCNC(=N)N)B(O)O)cc3)(CC1)CC2.Cl [Ex. 3, 1-(R)-[4-(4-Methoxybicyclo[2.2.2]oct-1-yl)benzoylamino]-4-guanidinobutylboronic acid hydrochloride]					0.32 µM	1.25 µM	16 times	12 times	19 times	14 times	
		9.7 nM	2040 nM	290 nM	30000 nM	0%	Cl.N=C(N)NCCC[C@H](NC(=O)c1ccc(C23CCC(Cl)(CC2)CC3)cc1)B(O)O [Ex. 6, 1-(R)-[4-(4-Chlorobicyclo[2.2.2]oct-1-yl)benzoylamino]-4-guanidinobutylboronic acid hydrochloride]					0.75 µM	3.13 µM	30 times	10 times	4 times	2 times	
		2.7 nM	531 nM	1540 nM	5610 nM	0%	COC12CCC(c3cccc(C(=O)N[C@@H](CCCNC(=N)N)B(O)O)c3)(CC1)CC2.Cl [Ex. 51, 1-(R)-[3-(4-Methoxybicyclo[2.2.2]oct-1-yl)benzoylamino]-4-guanidinobutylboronic acid hydrochloride]					0.15 µM	0.84 µM	22 times	19 times	3 times	2 times	
		6.5 nM	692 nM	709 nM	> 33000 nM	0%	Cl.N=C(N)NCCC[C@H](NC(=O)c1cccc(C23CCC(O)(CC2)CC3)c1)B(O)O [Ex. 69, 1-(R)-[3-(4-Hydroxybicyclo[2.2.2]oct-1yl)benzoylamino]-4-guanidinobutylboronic acid hydrochloride]					0.17 µM	0.56 µM	18 times	15 times	4 times	3 times	
		4 nM	3280 nM	1440 nM	1020 nM	0%	COc1ccc(CCNC(=O)C2(C(=O)N[C@@H](CCCNC(=N)N)B(O)O)CCCC2)cc1OC [Ex. 103, 1-(R)-[1-(3,4-Dimethoxyphenethylaminocarbonyl)cyclopentanecarboxamido]-4-guanidinoboronic acid benzensulfonate]					0.29 µM	1.67 µM	> 30 times	24 times	6 times	4 times	

Second part, the compound before the results:

Compound	Thrombopenias observed 1 hour after oral administration to dogs ([1]; 2.5 mg/kg, 1 hour)	fall in number of platelets ([1]; 2.5 mg/kg, 1 hour)	IC50 [7]	IC50 [8]	IC50 [9]	IC50 [10]	Thrombopenias observed 1 hour after oral administration to dogs ([1]; 5 mg/kg, 1 hour)	effect on number of platelets, in words ([1]; 2.5 mg/kg)	increase of TT in animals, in words [2]	increase of ACT in animals, in words [3]	thrombin inhibition, in words [4]	TT Ctt2 (concentration which multiplies the coagulation time by 2) [5]	ACT Ctt2 (concentration which multiplies the coagulation time by 2) [6]	Increase in TT (number of times that the initial time is increased), 1 hour [2]	Increase in TT (number of times that the initial time is increased), 4 hours [2]	Increase in ACT (number of times that the initial time is increased), 1 hour [3]	Increase in ACT (number of times that the initial time is increased), 4 hours [3]	activity via the oral route, in words [11]
CC(=O)N[C@H](Cc1ccccc1)C(=O)N1CCC[C@H]1C(=O)N[C@@H](CCCNC(=N)N)B(O)O [DUP 714, Ac-(D)Phe-Pro-Arg boronic acid, reference compound]	55%	55±14%						lowers the number of platelets appreciably and reversibly	appreciably increase	appreciably increase	thrombin inhibitor							
Cl.N=C(N)NCCC[C@H](NC(=O)c1ccc(C23CCC(O)(CC2)CC3)cc1)B(O)O [Ex. 12, 1-(R)-[4-(4-Hydroxybicyclo[2.2.2]oct-1-yl)benzoylamino]-4-guanidinobutylboronic acid hydrochloride]			6.6 nM	2100 nM	93 nM	15400 nM	40%					0.18 µM	0.78 µM	24 times	19 times	> 30 times	> 30 times	
N=C(N)NCCC[C@H](NC(=O)C1(C(=O)NCc2ccccc2)CCCC1)B(O)O.O=S(=O)(O)c1ccccc1 [Ex. 22, 1-(R)-(1-Benzylaminocarbonylcyclopentanecarboxamido)-4-guanidinobutylboronic acid benzenesulfonate]			4.9 nM	8630 nM	1350 nM	780 nM	0%					0.30 µM	1.58 µM	20 times	8 times	6 times	2 times	
N=C(N)NCCC[C@H](NC(=O)C1(C(=O)NCCc2ccccc2)CCCC1)B(O)O.O=S(=O)(O)c1ccccc1 [Ex. 83, 1-(R)-(1-Phenethylaminocarbonylcyclopentanecarboxamido)-4-guanidinobutylboronic acid benzenesulfonate]			2.4 nM	6880 nM	1560 nM	1200 nM	0%					0.13 µM	0.56 µM	> 30 times	18 times	7 times	4 times	
COc1cccc(CCNC(=O)C2(C(=O)N[C@@H](CCCNC(=N)N)B(O)O)CCCC2)c1.O=S(=O)(O)c1ccccc1 [Ex. 94, 1-(R)-[1-(3-Methoxyphenethylaminocarbonyl)cyclopentanecarboxamido]-4-guanidinobutylboronic acid benzenesulfonate]			3.9 nM	4060 nM	1410 nM	1000 nM	0%					0.32 µM	1.77 µM	17 times	21 times	9 times	4 times	
hirudin																		not being active via the oral route
hirulog-1: Direct inhibitors of thrombin, currently in clinical development [reference compound]																		not being active via the oral route
